The results in this text go back to ChEMBL document CHEMBL1201862, “PubChem BioAssay data set” (2004).

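How tested: cells in 96-well plates exposed to compound for 48 hours at five concentrations. At the GI50, growth is halved.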 Activity calls are given as the source filed them. No stated cut-off is given here; in the data, active = GI50 up to about 1.1 µM and inactive = higher.

Some test systems named below: HT-29; T47D; SF-268; PC-3; U-251; SR; HL-60; RPMI-8226; IGROV-1; HOP-92; HCC 2998; SNB-19; OVCAR-5; SW-620; HCT-15; MDA-MB-231; MCF7; SF-295; NCI-H460; CAKI-1.
Common to all, as to experiment: NCI tumour cell line growth inhibition, 48 h

As for `COc1cc(-c2[o+]c3cc(O)cc(OC4OC(CO)C(O)C(O)C4O)c3cc2OC2OC(CO)C(O)C(O)C2O)cc(OC)c1O` (stereo not given), the GI50 in the test with HT-29, in the test on T47D, in the test with SF-268, in the test on PC-3, in the test on U-251 and in the test on SR was > 100 µM (inactive) throughout. Moreover, the GI50 in the test with HL-60 was 21.1 µM (inactive); in the test on RPMI-8226, > 100 µM (inactive); in the test with IGROV-1, > 100 µM (inactive); with HOP-92 it was > 100 µM (inactive); with HCC 2998 it was > 100 µM (inactive); with SNB-19 it was > 100 µM (inactive). Further, the GI50 with OVCAR-5 was > 100 µM (inactive); in the test with SW-620 it was > 100 µM (inactive); in the test with HCT-15 it was more than 100 µM; in the test with MDA-MB-231, > 100 µM (inactive); in the test with MCF7, > 100 µM (inactive); with SF-295 it was > 100 µM (inactive). For the same compound, the GI50 in the test on NCI-H460 and with CAKI-1 was > 100 µM (inactive) throughout.
As to `Cc1nc(-c2cc3ccccc3oc2=O)cs1`, the GI50 is > 100 µM (inactive) in the test with HT-29; > 100 µM (inactive) in the test on T47D; 42.9 µM (inactive) in the test with SF-268; > 100 µM (inactive) in the test on PC-3; 32 µM (inactive) with U-251; 59 µM (inactive) with SR. For the same compound, the GI50 in the test with HL-60 is > 100 µM (inactive); in the test on RPMI-8226, > 100 µM (inactive); with IGROV-1, 17.1 µM (inactive); with HOP-92 it was 19 µM (inactive); in the test on HCC 2998, > 100 µM (inactive); with SNB-19, 40.6 µM (inactive). Further, the GI50 is > 100 µM (inactive) in the test on OVCAR-5; > 100 µM (inactive) with SW-620; more than 100 µM in the test on HCT-15; 25.1 µM (inactive) with MDA-MB-231; > 100 µM (inactive) in the test with MCF7; 35.5 µM (inactive) in the test on SF-295. Also, the GI50 with NCI-H460 and in the test with CAKI-1 was > 100 µM (inactive) in each case.
Regarding `Cc1cn(C2CC(N=[N+]=[N-])C(COP(=O)(O)OCC3OC(n4cc(F)c(=O)[nH]c4=O)CC3O)O2)c(=O)[nH]c1=O` (stereo not given), the GI50 with HT-29 was > 100 µM (inactive); in the test on T47D it was > 100 µM (inactive); in the test with SF-268, 0.442 µM (active); in the test with PC-3 it was > 100 µM (inactive); in the test with U-251 it was > 25.5 µM (inactive); in the test on SR, 1.92 µM (inactive). In addition, the GI50 in the test on HL-60 is 9.1 µM (inactive); in the test with RPMI-8226 it was 0.311 µM (active); in the test with IGROV-1, 2.88 µM (inactive); in the test on HOP-92, 1.11 µM (active); with HCC 2998 it was > 100 µM (inactive); in the test with SNB-19, > 31.6 µM (inactive). The GI50 in the test on OVCAR-5 was > 100 µM (inactive); with SW-620, 4.56 µM (inactive); in the test on HCT-15 it was more than 100 µM; in the test on MDA-MB-231, > 100 µM (inactive); in the test with MCF7 it was 0.137 µM (active); in the test on SF-295 it was 0.337 µM (active). The GI50 was 0.0292 µM (active) in the test on NCI-H460 and 1.32 µM (inactive) in the test with CAKI-1.
On to `CC(=O)NCCC1CN(C(=O)/C=C\I)c2ccccc21` (stereo not given), for which the GI50 with HT-29 is 11.7 µM (inactive); with T47D it was 18.2 µM (inactive); in the test with SF-268, 15.5 µM (inactive); in the test on PC-3 it was 11.7 µM (inactive); in the test on U-251, 12.9 µM (inactive); in the test on SR, > 33.7 µM (inactive). Further, the GI50 is 2.7 µM (inactive) in the test on HL-60; 2.08 µM (inactive) with RPMI-8226; 15.1 µM (inactive) in the test on IGROV-1; 21.7 µM (inactive) with HOP-92; 15.2 µM (inactive) in the test on HCC 2998; 20.4 µM (inactive) with SNB-19. In addition, the GI50 in the test on OVCAR-5 is 16.6 µM (inactive); in the test on SW-620, 12.7 µM (inactive); in the test with HCT-15 it was 7.71 µM; in the test with MDA-MB-231, 4.13 µM (inactive); in the test on MCF7, 2.56 µM (inactive); in the test on SF-295, 15.3 µM (inactive). Also, the results for the GI50 in the test with NCI-H460 and in the test with CAKI-1 were 9.75 µM (inactive) and 1.73 µM (inactive), respectively.
